Data: patent US9902737B2, “Sweet flavor modifier” (SENOMYX, INC., priority 2010, dated 2018)
Several values for one entry are separate records, joined by “and”; a condition that tells them apart may be missing. Equal entries are not always repeated.

Experiments:
human panelists [1] = assay: Sweet flavor enhancement, human panelists, scaling test; format: in vivo; design: key: 0 = no sweetness, 15 = sweetness equal to 15% sucrose; conditions: 0-15 line scale
From the text: Test samples containing experimental compounds were compared to a dose-response curve for perceived sweetness intensity of sweeteners (sucralose, sucrose, fructose and other sweeteners) concentrations to determine equivalent sweetness intensity.
A group of eight or more panelists tasted solutions including sweeteners at various concentrations, as well as the experimental compound both with and without added sweetener. Panelists then rated sweetness intensity of all samples on a structured horizontal line scale, anchored from 0 to 15, where 0 equals no sweetness and 15 equals equivalent sweetness to a 15% sucrose sample. Scores for sweetness intensity were averaged across panelists. Then using the average scores and/or equation of the line for the sweetener dose-response curve, equivalent sweetness concentrations were determined for the samples containing experimental compounds.
Subjects had been previously familiarized with the key attribute taste and were trained to use the 0 to 15 point line scale. Subjects refrained from eating or drinking (except water) for at least 1 hour prior to the test. Subjects ate a cracker and rinsed with water several times to clean the mouth.
Sweetener solutions are provided at a wide range of concentrations such as 100 ppm, 200 ppm, 300 ppm, 400 ppm, and 500 ppm for sucralose, or between 0% and 12% for sucrose or fructose, in order to create a dose-response curve. Samples containing experimental compound were prepared both alone and in a 100 ppm sucralose solution or a 6% sucrose or fructose solution. All samples were made up in low sodium buffer pH 7.1. In order to aid dispersion, solutions can be made up in 0.1% ethanol.
The solutions were dispensed in 20 ml volumes into 1 oz. sample cups and served to the subjects at room temperature. All samples were presented in randomized counterbalanced order to reduce response bias. Further, two sessions of testing may be used to check panel precision.
Subjects tasted each sample individually and rate sweetness intensity on the line scale prior to tasting the next sample. All samples were expectorated. Subjects may retaste the samples but can only use the volume of sample given. Subjects must rinse with water between samples. Eating an unsalted cracker between samples may be required depending on the samples tasted.
The scores for each sample were averaged across subjects and standard error was calculated. The dose-response curve was plotted graphically, and this may be used to ensure the panel is rating accurately; i.e., increasing the concentration of sucralose should correspond to increased average scores for sweetness. A 2-way ANOVA (factors being samples and panelists) and multiple comparison tests (such as Tukey's Honestly Significant Difference test) can be used to determine differences among samples and/or panelists. A 3-way ANOVA, with sessions as the third factor, can be used to determine if there is any difference in the ratings between sessions.

human panelists [2] = assay: Sweet flavor enhancement, human panelists, paired comparison test; format: in vivo
Procedure: Test samples containing experimental compounds are presented in pairs to the panelist and they are asked to determine which of the sample is sweeter. A group of 10-16 or more panelists participated in each test. Subjects refrained from eating or drinking (except water) for at least 1 hour prior to the test. Subjects rinsed with water several times to clean the mouth.
All samples are prepared with ethanol to ensure dispersion of the compound in solution. This includes samples without compound; all solutions are balanced for 0.1% ethanol.
Samples are also prepared with low sodium buffer (pH 7.1) in place of water. Buffer contains 0.952 g of KCl, 5.444 g of Na2HPO4, and 0.952 g of KH2PO4 in 40 L of DIUF water. Sample volumes are usually 20 ml.
In one paired comparison test, the panelist is presented with two different samples and asked to identify the sample which is sweeter. The samples within a paired comparison test are presented in a randomized, counterbalanced order. Panelists have up to a 1 minute delay between taste tests to clear the mouth of any tastes.
Binomial probability tables are used to determine the probability of the correct number of responses occurring for each test at alpha=0.05

hT1R2/R3 = biological target: T1, hT1R2/R3 (Homo sapiens, UniProt Q7RTX0+Q8TE23); assay: Screening for sweet enhancers: sucrose EC50 shift, FLIPR calcium assay; format: cell-based; conditions: sucrose EC50 without enhancer / with enhancer; test compound 50 μM; hT1R2/R3-HEK293 Ga15 cells; Tables A and B
T1 construct: expressed in transfected cells; host or cells: HEK293 cells expressing Ga15 (hT1R2/R3-HEK293 Ga15)
T1 sequence (Q8TE23 20-839): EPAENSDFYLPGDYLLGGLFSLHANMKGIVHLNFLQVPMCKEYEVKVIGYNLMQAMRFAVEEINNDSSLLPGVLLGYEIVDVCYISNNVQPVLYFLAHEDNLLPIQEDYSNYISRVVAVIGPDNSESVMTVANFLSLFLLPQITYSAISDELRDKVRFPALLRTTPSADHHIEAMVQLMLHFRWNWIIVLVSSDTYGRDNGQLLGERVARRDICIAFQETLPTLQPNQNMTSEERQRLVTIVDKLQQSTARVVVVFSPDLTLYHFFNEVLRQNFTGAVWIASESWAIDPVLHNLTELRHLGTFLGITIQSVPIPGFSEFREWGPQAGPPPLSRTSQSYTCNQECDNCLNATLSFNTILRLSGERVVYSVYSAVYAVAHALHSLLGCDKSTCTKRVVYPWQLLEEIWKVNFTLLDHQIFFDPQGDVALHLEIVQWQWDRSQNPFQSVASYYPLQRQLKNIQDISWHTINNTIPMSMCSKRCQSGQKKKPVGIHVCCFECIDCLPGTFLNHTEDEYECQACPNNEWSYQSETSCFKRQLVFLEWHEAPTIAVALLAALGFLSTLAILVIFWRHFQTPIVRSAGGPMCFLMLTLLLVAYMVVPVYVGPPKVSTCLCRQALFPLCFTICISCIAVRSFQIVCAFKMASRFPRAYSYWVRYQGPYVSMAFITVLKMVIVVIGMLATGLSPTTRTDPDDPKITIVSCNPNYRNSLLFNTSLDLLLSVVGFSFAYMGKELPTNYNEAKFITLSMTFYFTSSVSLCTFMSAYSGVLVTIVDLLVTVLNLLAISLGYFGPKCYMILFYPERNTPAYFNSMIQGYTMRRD
T1 sequence (Q7RTX0 21-852): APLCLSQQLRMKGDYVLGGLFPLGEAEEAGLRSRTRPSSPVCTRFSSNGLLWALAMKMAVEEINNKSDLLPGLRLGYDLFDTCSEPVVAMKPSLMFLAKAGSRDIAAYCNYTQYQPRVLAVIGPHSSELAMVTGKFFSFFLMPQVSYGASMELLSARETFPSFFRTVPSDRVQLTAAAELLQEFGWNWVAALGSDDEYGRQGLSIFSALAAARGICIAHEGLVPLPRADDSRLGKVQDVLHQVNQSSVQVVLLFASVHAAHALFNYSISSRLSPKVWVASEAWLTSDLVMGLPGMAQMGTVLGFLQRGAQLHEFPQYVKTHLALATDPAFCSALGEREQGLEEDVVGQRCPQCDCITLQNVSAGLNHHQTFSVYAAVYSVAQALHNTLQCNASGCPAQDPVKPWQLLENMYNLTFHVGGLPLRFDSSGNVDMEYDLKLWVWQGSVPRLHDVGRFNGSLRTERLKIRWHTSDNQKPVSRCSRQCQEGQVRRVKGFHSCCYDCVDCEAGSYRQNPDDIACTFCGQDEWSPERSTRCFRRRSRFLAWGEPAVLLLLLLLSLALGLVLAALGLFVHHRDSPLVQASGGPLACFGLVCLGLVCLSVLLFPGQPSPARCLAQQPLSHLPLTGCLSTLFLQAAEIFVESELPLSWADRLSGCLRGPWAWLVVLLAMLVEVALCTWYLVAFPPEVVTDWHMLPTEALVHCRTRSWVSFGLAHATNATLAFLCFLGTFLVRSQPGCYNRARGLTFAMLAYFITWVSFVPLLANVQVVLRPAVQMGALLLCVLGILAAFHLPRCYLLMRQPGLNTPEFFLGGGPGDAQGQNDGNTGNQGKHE
Procedure: hT1R2/R3-HEK293 Ga15 cells were seeded in 384-well-clear bottom plates (Fisher) at a density of ˜32,000 cells/well and grown overnight. On the day of the experiment, hT1R2/R3-HEK293 Ga15 were loaded with the calcium indicator Fluo3AM ([…]) (Invitrogen, Carlsbad, Calif.) in D-PBS (Invitrogen, Carlsbad, Calif.) using a Multidrop. Cells were incubated for 1 hour at room temperature and excess dye was washed out with D-PBS using an EMBLA cell washer (Molecular Devices, Sunnyvale, Calif.), leaving a residual volume of […]. […] After 30 minutes of rest time at room temperature, Fluo3AM-loaded cell plates, and the sweetener/compound plate mixture were loaded into a Fluorometric Imaging Plate Reader (FLIPR) (Molecular Devices, Sunnyvale, Calif.). Imaging was performed using a 480 nm excitation and a 535 emission and was initiated with the acquisition of the baseline fluorescence for a period of 7 seconds. […] Raw fluorescence counts were then normalized in each well (using custom made data import software) by calculating delta F/f values (maximum fluorescent count obtained after stimulation—minimal fluorescent count obtained before stimulation/minimal fluorescent count obtained before stimulation). EC50s were determined using a non-linear regression algorithm (GraphPad PRISM, San Diego, Calif.), where the Hill slope, bottom asymptotes and top asymptotes were allow to vary. […]

Compound: OC[C@H]1O[C@H](O[C@]2(CCl)O[C@H](CCl)[C@@H](O)[C@@H]2O)[C@H](O)[C@@H](O)[C@H]1Cl [sucralose]
- Average sweetness (human panelists [1]; 50 ppm sucralose alone (reference)): 3.9
- Average sweetness (human panelists [1]; 100 ppm sucralose alone (reference)): 5.9 and 5.5
- Average sweetness (human panelists [1]; 200 ppm sucralose alone (reference)): 8.7 and 9.1
- Average sweetness (human panelists [1]; 300 ppm sucralose alone (reference)): 10.2

Compound: Cc1nc2cccc(OCC(C)(C)NC(=O)c3ccncc3)c2c(N)c1C(=O)O [Example 24, 4-amino-5-(2-(isonicotinamido)-2-methylpropoxy)-2-methylquinoline-3-carboxylic acid]
- melting point: 195 to 198 °C

Compound: Cc1nc2cccc(OCC(C)C)c2c(N)c1C(=O)O [Example 41, 4-amino-5-isobutoxy-2-methylquinoline-3-carboxylic acid]
- melting point: 203.7 °C

Compound: OC[C@H]1O[C@@](CO)(O[C@H]2O[C@H](CO)[C@@H](O)[C@H](O)[C@H]2O)[C@@H](O)[C@@H]1O [Sucrose, sucrose]
- Average sweetness (human panelists [1]; 6% sucrose alone (reference)): 6.6 and 6.5 and 6.3 and 6.2 and 6.1 and 6.4
- Average sweetness (human panelists [1]; 8% sucrose alone (reference)): 8.2 and 8.1 and 7.8 and 7.9 and 8.4
- Average sweetness (human panelists [1]; 9% sucrose alone (reference)): 9.2 and 8.4 and 8.6 and 8.5
- Average sweetness (human panelists [1]; 10% sucrose alone (reference)): 9.7 and 9.5 and 9.2 and 9.0 and 9.6 and 10.3
- Average sweetness (human panelists [1]; 12% sucrose alone (reference)): 10.9
- Sample selected as sweeter by panelists, Total (human panelists [2]; pair: 1% sucrose vs LSB + 25 uM Compound A, total 45): 44
- Sample selected as sweeter by panelists, Total (human panelists [2]; pair: 1% sucrose vs LSB + 25 uM Compound I3, total 42): 36
- Sample selected as sweeter by panelists, Total (human panelists [2]; pair: 1% sucrose vs LSB + 33 uM Compound C1, total 22): 18
- Sample selected as sweeter by panelists, Total (human panelists [2]; pair: 1% sucrose vs LSB + 36.5 uM Compound B4, total 45): 44
- Sample selected as sweeter by panelists, Total (human panelists [2]; pair: 1% sucrose vs LSB + 45 uM Compound J, total 48): 47
- Sample selected as sweeter by panelists, Total (human panelists [2]; pair: 10% sucrose vs 6% sucrose + 25 uM Compound A, total 48): 28
- Sample selected as sweeter by panelists, Total (human panelists [2]; pair: 10% sucrose vs 6% sucrose + 36.5 uM Compound B4, total 26): 10
- Sample selected as sweeter by panelists, Total (human panelists [2]; pair: 10% sucrose vs 6% sucrose + 45 uM Compound J, total 42): 17
- Sample selected as sweeter by panelists, Total (human panelists [2]; pair: 12% sucrose vs 6% sucrose + 25 uM Compound I3, total 42): 18
- Sample selected as sweeter by panelists, Total (human panelists [2]; pair: 12% sucrose vs 6% sucrose + 33 uM Compound C1, total 30): 17

Compound: CCCNC(=O)C(C)(C)COc1cccc2nc(CC)c(C(=O)O)c(N)c12 [Compound Q, 4-amino-5-(2,2-dimethyl-3-oxo-3-(propylamino)propoxy)-2-ethyl-quinoline-3-carboxylic acid]
- EC50 Ratio (50 μM) (hT1R2/R3): 3.4

Compound: Cc1nc2cccc(OCC(C)(C)NC(=O)c3cccc(O)c3)c2c(N)c1C(=O)O [Example 25, 4-amino-5-(2-(3-hydroxybenzamido)-2-methylpropoxy)-2-methylquinoline-3-carboxylic acid]
- melting point: 195 to 198 °C

Compound: Cc1nc2cccc(OC3CCCCC3)c2c(N)c1C(=O)O [Example 36, 4-amino-5-(cyclohexyloxy)-2-methylquinoline-3-carboxylic acid]
- melting point: 220 to 221.5 °C

Compound: CCC(CC)COc1cccc2nc(C)c(C(=O)O)c(N)c12 [Example 22, 4-amino-5-(2-ethylbutoxy)-2-methylquinoline-3-carboxylic acid]
- melting point: 145 to 151 °C
